Measurements published in paper PMC10291556 (Journal of Medicinal Chemistry, 2023).

Legend:
HeLa cells [1] = assay: Wound healing assay; format: cell-based, human; details: 24 h, multiples of IC50,72h
Experimental: Figure 7 (A–E) Wound healing assay. The monolayer of HeLa cells was scratched with a 10 μL tip, and a starving medium containing the tested complexes was added. The shots were taken at times 0 and 24 h. (A) Control, non-treated cells; (B) cells treated with complex 3; (C) cells treated with complex 4. […] (E) Evaluation of wound healing assay. Bars represent gap size vs. Control (100%), following a 24 h incubation with the investigated compounds. Light gray bars: complex 3; dark gray bars: complex 4; black bar: complex 2. (F) Re-adhesion assay. […] Following trypsinization, the cells were resuspended in Dulbecco’s modified Eagle medium (DMEM), counted, left to reconstitute adhesive membrane proteins for 30 min, and re-seeded at the density of 3× 10^4 cells/100 μL/well. After 30 min of incubation at 37 °C, the re-adhesion activity was determined as described in the Experimental Section. Data represents mean ± SD, n = 8; *p < 0.05, **p < 0.01, ***p < 0.001.
HeLa cells were grown close to confluence in 6-well plates in a complete medium, and then the medium was replaced with a serum-free medium [supplemented with 0.1% bovine serum albumin (BSA)], and the cells were incubated for an additional 24 h. The HeLa monolayers were scratched with a 10 μL pipet tip, and the cells were washed twice with PBS to remove peeled cells and treated with tested compounds at indicated concentrations. The scratched areas were shot immediately after the complex addition and then after 24 h with a Canon EOS 1200D camera attached to an Olympus CKX41 inverted microscope with a 10×/0.25 phase contrast objective. Digital images were taken by the QuickPHOTO MICRO 3.1 program (PROMICRA, Prague, Czech Republic) and processed with the TScratch analysis software (ETH Zürich, Switzerland). The cell’s ability to migrate into the open area was expressed as a percentage of control.

tubulin in HeLa cells = assay: Western blotting of tubulin; format: cell-based, human; details: 24 h, 0.25× or 0.5× IC50,72h, Western blot
Experimental: Figure 2 Western blotting analyses of tubulin in protein extract from HeLa cells treated with the investigated Pt complexes. (A) Representative membranes. […] Proteins from control, untreated cells were loaded to lane C. (B) Quantitative data evaluation; bars represent mean ± SD from two independent experiments.
HeLa cells were seeded in 60 mm dishes at a density of 3 × 10^5 cells/dish and cultured for 20 h. The cells were then treated with the tested compounds at concentrations indicated in the text. After 24 h of treatment, the cells were scraped, washed, and pelleted. […] After transferring to the polyvinylidene fluoride membrane, the proteins were detected using appropriate antibodies: anti-GAPDH antibody (mouse, Sigma-Aldrich), Anti-COX-2 (rabbit, Abcam), Anti-α-, β-, or γ-tubulin (all rabbit, Abcam), Anti-β-actin (mouse, Abcam), Goat Anti-Rabbit IgG(HRP) (Abcam; HRP = horseradish peroxidase), and Goat Anti-Mouse IgG(HRP) (ThermoFisher Scientific). SignalFire ECL Reagent (A + B) was used as a substrate for HRP, and the luminescence was recorded with Amersham Imager 680. The densities in the images were assessed with the Aida image analysis software.

MDA-MB-231 = assay: MTT antiproliferative assay, 72 h; format: cell-based, human; details: MTT, 72 h incubation, mean ± SD; read-out: IC50 MDA-MB-231
Experimental: (§1) Cells were treated with the tested compounds in a final volume of 200 μL/well. […] Calbiochem, Darmstadt, Germany) was added, and the cells were incubated for an additional 2–4 h. The medium was removed, and the insoluble formazan product was dissolved in 100 μL/well DMSO. The absorbance was read at 570 nm (vs 620 nm) using an Absorbance Reader (SUNRISE TECAN SCHOELLER). The read values were converted to the percentage of control. […] All experiments were made in triplicate.

MCF-7 = assay: MTT antiproliferative assay, 72 h; format: cell-based, human; details: MTT, 72 h incubation, mean ± SD; read-out: IC50 MCF-7
Experimental: as §1

HeLa = assay: MTT antiproliferative assay, 72 h; format: cell-based, human; details: for increase of antiproliferative activity relative to Pt(IV) complex 2: IC50, Table 1; for IC50: MTT, 72 h incubation, mean ± SD, read-out: IC50 HeLa
Experimental: as §1

A2780 = assay: MTT antiproliferative assay, 72 h; format: cell-based, human; details: MTT, 72 h incubation, mean ± SD; read-out: IC50 A2780
Experimental: as §1

A2780cisR = assay: MTT antiproliferative assay, 72 h; format: cell-based, human; details: MTT, 72 h incubation, mean ± SD; read-out: IC50 A2780cisR
Experimental: as §1

HCT-116 = assay: MTT antiproliferative assay, 72 h; format: cell-based, human; details: MTT, 72 h incubation, mean ± SD; read-out: IC50 HCT-116
Experimental: as §1

COX in HeLa cells = assay: COX activity assay (kit) in treated cells; format: cell-based, human; details: 24 h, 1× IC50,72h, vs untreated control
Experimental: The results are expressed relative to the COX activity of untreated control.
HeLa cells were seeded in 6-well plates at a density of 10^5 cells/well and incubated overnight. The cells were treated with the tested compounds at concentrations corresponding to 1× IC50. Following a 24 h treatment, the cells were lyzed with radioimmunoprecipitation assay (RIPA) buffer supplemented with proteinase inhibitors on ice for 10 min. The extracts were cleared with centrifugation (12,000g/5 min), and protein content was determined using Bradford assay. COX activity was determined with a COX Activity Assay Kit (Abcam). 6 μg of protein was used in the reaction. The experiment was set up according to the manufacturer’s instructions. The fluorescence (Ex/Em 535/587 nm) was read in a kinetic mode, and the COX inhibition was expressed as a percentage of the activity of the untreated control.

HeLa cells [2] = assay: Lactate production; format: cell-based, human; details: 6 h, 5× IC50, free DCF at concentrations 380–770 times higher
Experimental: Figure 3 (A) Lactate production. Relative lactate concentration in medium following a 6 h treatment of HeLa cells with the investigated compounds at concentrations corresponding to 5× IC50. […] Data represents mean ± SD, n = 2–4; asterisks indicate a statistically significant difference from the untreated control (*p < 0.01, **p < 0.005, ***, ***p < 0.001).
HeLa cells were seeded (1 × 10^5 cells/well) and grown in 12-well plates, treated with platinum agents, and diclofenac for 6 h. Lactate concentration in the culture medium was measured using a colorimetric Lactate Assay Kit (Sigma-Aldrich) following the manufacturer’s instructions. […] The amount of lactate in individual samples was determined from a standard curve and expressed as a percentage of non-treated control.

MRC-5 = assay: MTT assay in non-cancerous fibroblasts, 72 h; format: cell-based; details: non-cancerous human fibroblasts, 72 h incubation, mean ± SD
Experimental: as §1, with “The absorbance was read at 570 nm (vs 620 nm) using an Absorbance Reader (SUNRISE TECAN SCHOELLER).” left out

| SMILES | migration activity (wound closing) (HeLa cells [1]) | reduction of the amount of tubulin in cell extracts (tubulin in HeLa cells) | IC50 (MDA-MB-231) [nM] | IC50 (MCF-7) [nM] | increase of antiproliferative activity relative to Pt(IV) complex 2 (HeLa) [fold] | IC50 (HeLa) [nM] | IC50 (A2780) [nM] | IC50 (A2780cisR) [nM] | IC50 (HCT-116) [nM] | inhibition of COX activity (COX in HeLa cells) | lactate excreted into media (HeLa cells [2]) | IC50 (MRC-5) [nM] |
| --- | --- | --- | --- | --- | --- | --- | --- | --- | --- | --- | --- | --- |
| Cc1c(C)c2c3c4c1=CC=C[N]4[Pt][N]3C=CC=2.NCCNC(=O)Cc1ccccc1Nc1c(Cl)cccc1Cl.NCCNC(=O)Cc1ccccc1Nc1c(Cl)cccc1Cl.N[C@H]1CCCC[C@@H]1N [complex 4, Pt^IV56MeSS(DCF)2] | reduced the ability of HeLa cells to close artificial wounds | higher potency of the two complexes to reduce the amount of tubulin | 290 ± 40 | 330 ± 50 | 9 | 310 ± 80 | 50 ± 10 | 80 ± 20 | 180 ± 50 | slightly but significantly inhibited COX-2 activity | considerably reduced | 320 ± 80 |
| Cc1c(C)c2c3c4c1=CC=C[N]4[Pt]([Cl])[N]3C=CC=2.NCCNC(=O)Cc1ccccc1Nc1c(Cl)cccc1Cl.N[C@H]1CCCC[C@@H]1N [complex 3, Pt(IV)56MESSenDCFCl] | reduced the ability of HeLa cells to close artificial wounds | higher potency of the two complexes to reduce the amount of tubulin | 400 ± 100 | 400 ± 100 | 4.5 | 600 ± 100 | 120 ± 20 | 130 ± 20 | 200 ± 30 | slightly but significantly inhibited COX-2 activity | considerably reduced | 700 ± 100 |
